From US20260130966A1, “NOVEL THERAPEUTICS FOR PARASITIC INFECTION” (UNIVERSITY OF SOUTH FLORIDA, priority 2022, published 2026)
Converted amounts (≈) assume the structure as drawn. “And” between values parts separate entries of the source, which are not always exact repeats. Equal values may be shown once. “Also recorded” adds a separate entry of the source. Read-outs that look alike come from different tables or passages of the source. Where a SMILES comes first, the peptide text is derived from it. [ ]: non-standard residue; d: D form. The star is where a group is joined. ξ: configuration not given here. Phe(Nα-CONH2) = NC(=O)N[C@@H](Cc1ccccc1)C(=O)*; NMeI = CC[C@H](C)[C@H](NC)C(=O)O; NMeξIle = CC[C@H](C)C(NC)C(=O)O; X1 = CN(/C=C\c1c[nH]c2ccccc12)*; NMeL = CN[C@@H](CC(C)C)C(=O)O; NMeV = CN[C@H](C(=O)O)C(C)C; NMeA = CN[C@@H](C)C(=O)O; For = O=C*

Experiments:
Leishmania donovani = Leishmania donovani infected macrophage assay; format: cell-based
Protocol: (§1) The Leishmania donovani infected macrophage assay and cytotoxicity screen were conducted as previously described.

[1] = system: murine J774 macrophage cells; assay: Cytotoxicity testing against murine J774 macrophage cells (CellTiter 96); format: cell-based
Protocol: The isolated compounds were each tested for cytotoxicity using mammalian J774A.1 cell lines (ATCC TIB-67™) in complete media; RPMI 1640 medium with phenol red containing L-glutamine and then supplemented with 10% fetal bovine serum (CM). Cells were seeded at 5×10^5 cell/mL and plated in a 96-well format with 100 μL/well fresh media on day 0 and were incubated overnight at 37° C., 5% CO2 for adherence. Following 24 h incubation, spent media was removed and 100 μL of fresh media with test compounds were serially diluted 1:2 with a starting concentration of 10 μg/mL was added to the cells and incubated for an additional 68 h before adding in 20 μL CellTiter 96® AQueous One Solution Cell Proliferation Assay reagent (Promega). Cells were incubated for an additional 4 h before reading absorbance (490) nm on the CLARIOstar plate reader.

P. falciparum Dd2 = assay: microbe, parasite or virus in culture; format: cell-based, Plasmodium falciparum
Protocol: (§2) For parasite suspension, P. falciparum malaria strains were grown under normal conditions as previously described by Trager and Jensen with some modifications.” Briefly, parasites were suspended in RPMI 1640 supplemented with 0.23% sodium bicarbonate, […] hypoxanthine and 0.5% albumax (CM), 4% packed washed red blood cells by volume and incubated in a continuous gas incubator set to normal conditions (5% O2, 5% CO2, […]). Parasites were prepared for drug susceptibility assay by highly synchronizing schizonts 16 h before experiment start by using a 70% percoll method. Ring stage parasites were then resuspended in culture with fresh CM containing 2% hematocrit and 0.5% parasitemia.
(§3) Antimalaria activity was assessed against reference strains of NF54, 3D7 and Dd2 using an adaptation of the sensitivity assay of Desjardins et al. using SybrGreen fluorescence as an assessment of parasite growth.^32 NF54 original isolate was obtained from a patient living near Schiphol Airport, Amsterdam and its clonal isolate 3D7 are generally considered to be drug sensitive, though 3D7 does convey resistance to sulfadoxine. Dd2 derived from the parent W2, is multi-drug-resistant line originating from the Indochina III/CDC isolate, which contain point mutations in pfcrt as well as amplifications in pfmdr1 and GTP cyclohydrolase. Briefly, compounds were diluted to 10 μg/mL and serially diluted along a microtiter plate before adding in 100 μL/well of the parasite suspension. Parasite growth was compared to controls incubated at 37° C. and normal culture conditions (5% O2, 5% CO2, 90% N2) for 72 h. Plates were frozen and thawed before adding a final 1× concentration of SybrGreen in lysis buffer and read on the CLARIOstar fluorescence plate reader (Ex/Em 484-15/528-15) following a 45 min incubation at room temperature. Drug EC50 values were calculated by interpolation of the probit transformation of the log(dose)-response curve using the MARS software provided by BMG.

P. falciparum 3D7 = assay: microbe, parasite or virus in culture; format: cell-based, Plasmodium falciparum
Protocol: as §2, §3

P. falciparum NF54 = assay: microbe, parasite or virus in culture; format: cell-based, Plasmodium falciparum
Protocol: as §2, §3

HEK293T = assay: MTT cytotoxicity, human kidney HEK293T cells; format: cell-based
Protocol: (§4) The cytotoxicity of the metabolites to human liver cells and kidney cells was determined using an MTT based-In Vitro Toxicology Assay Kit (Sigma-Aldrich, St. Louis, MO, USA) following the manufacturing instructions. The human kidney HEK293T cells and the human liver HEPGZ cells were used for the evaluation in this study. Both cell samples were maintained and suspended in Dulbecco's Modified Eagle Medium (DMEM with 4.5 g/L glucose, L-glutamine and sodium pyruvate, Corning, Manassas, VA, USA) containing 10% fetal bovine serum (Thermo Scientific) and 1% penicillin/streptomycin at 37° C. under 5% CO2 atmosphere. The cells were plated on a 96-well plate with approximately 5×10^3-1×10^4 cells in each well, and incubated at 37° C. overnight. […] After that, the liquid in each well of the plate was removed carefully and thoroughly, then the cells in the wells were treated with 100 μL of DMSO, and incubated at 37° C. for 15 m. […] Bio Tek Instruments, Inc. Winooski VT). Cells treated with vancomycin, a common option for treating CDI in clinical settings, were also included in the MTT tests as a control. Cell survival and the IC50 were calculated according to the method used in a previous publication: Survival of cells (%)=Drug-treated group OD540/control group OD540×100.

C. difficile UK6 = assay: C. difficile MIC screening; format: cell-based, Clostridium difficile
HepG2 = assay: MTT cytotoxicity, human liver HepG2 cells; format: cell-based
Protocol: as §4

J774.A1 macrophages = assay: Cytotoxicity screen against Leishmania host cell line; format: cell-based; details: toxicity to J774.A1 macrophages
Protocol: as §1

[2] = system: ESKAPE panel of bacterial pathogens; assay: ESKAPE panel antibacterial screen; format: cell-based
[3] = system: liver stage of Plasmodium falciparum; details: previous investigation; cited from earlier work
[4] = system: Blood-Stage P. falciparum Strains; assay: Initial blood-stage screen against several P. falciparum strains; format: cell-based, Plasmodium falciparum
Protocol: as §2, §3

[5] = cytotoxicity, murine J774 macrophage cells, read-out: EC50

Row | Compound | EC50 (μg/mL) [1] [µg/mL] | IC50 (P. falciparum Dd2; Dd2) [µM] | IC50 (P. falciparum 3D7; 3D7) [µM] | IC50 (P. falciparum NF54; NF54) [µM] | EC50 [1, 5] [µM] | other results
1 | 4,12-Bis(acetyl)alcyopterosin O [Compound C8] |  |  |  |  |  | IC50 (Leishmania donovani): 1.2 µM
2 | CCN(CC)CCCC(C)Nc1ccnc2cc(Cl)ccc12 (stereo not shown) [Chloroquine, reference compound] |  |  |  |  |  | EC50 ([1]; Mus musculus, J774): 16.3 µg/mL and 51 µM; IC50 (P. falciparum Dd2; Plasmodium falciparum, DD2, read-out: IC50 Values against Blood-Stage P. falciparum Strains: Dd2): 1.28 µM; IC50 (P. falciparum 3D7; Plasmodium falciparum, 3D7, read-out: IC50 Values against Blood-Stage P. falciparum Strains: 3D7): 0.03 µM; IC50 (P. falciparum NF54; Plasmodium falciparum, NF54, read-out: IC50 Values against Blood-Stage P. falciparum Strains: NF54): 0.03 µM
3 | Cc1cc2c(c3c1[C@@H](CO)OC3=O)CC(C)(C)C2 [Compound C3, alcyopterosin V] |  |  |  |  |  | CC50 (HEK293T): 220 µM; activity against Clostridium difficile (C. difficile UK6): potent activity; MIC (C. difficile UK6; C. difficile): 8.1 µM (≈ 2 µg/mL); CC50 (HepG2): 288 µM; IC50 (J774.A1 macrophages): 110 µM; activity against the ESKAPE panel [2]: inactive
4 | Cc1cc2c(c3c1[C@H](CO[N+](=O)[O-])OC3=O)CC(C)(C)C2 [Compound C4, alcyopterosin E] |  |  |  |  |  | CC50 (HEK293T): 570 µM; activity against Clostridium difficile (C. difficile UK6): potent activity; CC50 (HepG2): 331 µM; IC50 (J774.A1 macrophages): 62 µM; activity against the ESKAPE panel [2]: inactive
5 | CC(=O)O[C@@H]1[C@H](OC(C)=O)[C@H]([C@H](C)CCCC(C)C)[C@@]2(C)C[C@@H](OC(C)=O)[C@H]3[C@@H](C[C@@H](O)[C@H]4CC=CC(=O)[C@]34C)[C@H]12 [Compound C5, alcyosterone] |  |  |  |  |  | IC50 (Leishmania donovani; Macrophage): 1.5 µM; activity against the ESKAPE panel [2]: inactive
6 | Cc1cc2c(c(C)c1CCO[N+](=O)[O-])CC(C)(C)C2=O [Compound C6, alcyopterosin C] |  |  |  |  |  | IC50 (Leishmania donovani): 13 µM
7 | Cc1cc2c(c3c1[C@@H](CCl)OC3=O)CC(C)(C)[C@@H]2O [Compound C9, alcyopterosin L] |  |  |  |  |  | IC50 (Leishmania donovani): 2.4 µM
8 | CC[C@H](C)[C@@H](C(=O)N(C)/C=C\c1c[nH]c2ccccc12)N(C)C(=O)[C@H]([C@@H](C)CC)N(C)C(=O)[C@H](C)N(C)C(=O)[C@H](C(C)C)N(C)C(=O)[C@H](Cc1ccccc1)NC(C)=O [Compound P1, friomaramide A] (Ac-F[NMeV][NMeA][NMeI][NMeI]-X1) |  |  |  |  |  | blocking of liver stage parasite development [3]: comparable to the known drug primaquine
9 | CC[C@H](C)[C@@H](C(=O)N(C)/C=C\c1c[nH]c2ccccc12)N(C)C(=O)[C@H](C(C)C)N(C)C(=O)[C@H](C(C)C)N(C)C(=O)[C@H](CC(C)C)N(C)C(=O)[C@@H]1CCCN1C(=O)[C@H](Cc1ccccc1)NC(=O)[C@H](Cc1ccccc1)NC(C)=O [Compound P2, friomaramide B] (Ac-FFP[NMeL][NMeV][NMeV][NMeI]-X1) | 26.7 (≈ 24.6 µM) | 3.3 | 8.65 | 3.93 |  | EC50 [1]: 24.6 µM; blood-stage anti-malarial activity [4]: modest activity
10 | CC[C@H](C)[C@@H](C(N)=O)N(C)C(=O)[C@H](C(C)C)N(C)C(=O)[C@H](CC(C)C)N(C)C(=O)[C@H](Cc1ccccc1)N(C)C(=O)[C@H](Cc1ccccc1)NC=O [Compound P3, shagamide A] | >100 | 1.72 | 2.1 | 2.61 | > 100 | activity against the 3D7 strain (P. falciparum 3D7; blood stage, strain 3D7): comparable activity
11 | CC[C@H](C)C(C(=O)N(C)[C@H](C(=O)NC)[C@@H](C)CC)N(C)C(=O)[C@H](C(C)C)N(C)C(=O)[C@H](C)N(C)C(=O)[C@H](C(C)C)N(C)C(=O)[C@H](C(C)C)N(C)C(=O)[C@@H](NC=O)C(C)C (stereo partly shown) [Compound P4, shagamide B] (For-V[NMeV][NMeV][NMeA][NMeV][NMeξIle][NMeI]-NHMe) | >100 | 4.37 | > 10 | > 10 | > 100 | blood-stage anti-malarial activity [4]: did not show significant activity; also recorded: inactive
12 | CNC(=O)[C@H](C(C)C)N(C)C(=O)[C@H](C(C)C)N(C)C(=O)[C@H](C(C)C)N(C)C(=O)[C@H](C)N(C)C(=O)[C@H](C)N(C)C(=O)[C@H](CC(C)C)N(C)C(=O)[C@H](C(C)C)N(C)C(=O)[C@H](Cc1ccccc1)NC=O [Compound P5, shagamide C] (For-F[NMeV][NMeL][NMeA][NMeA][NMeV][NMeV][NMeV]-NHMe) | >100 | 1.07 | 2.52 | 3.73 | > 100 | inhibition of strain 3D7 (P. falciparum 3D7; blood stage, strain 3D7): 2.52 µg/mL
13 | CNC(=O)[C@H](C(C)C)N(C)C(=O)[C@H](C(C)C)N(C)C(=O)[C@H](C(C)C)N(C)C(=O)[C@H](C)N(C)C(=O)[C@H](C)N(C)C(=O)[C@H](CC(C)C)N(C)C(=O)[C@H](C(C)C)N(C)C(=O)[C@H](Cc1ccccc1)NC(N)=O [Compound P6, shagamide D] ({Phe(Nα-CONH2)}-[NMeV][NMeL][NMeA][NMeA][NMeV][NMeV][NMeV]-NHMe) | >100 | 2.02 | > 10 | 3.05 | > 100 | activity against the 3D7 strain (P. falciparum 3D7; blood stage, strain 3D7): inactive
14 | CC[C@H](C)[C@@H](C(=O)NC)N(C)C(=O)[C@H](C)N(C)C(=O)[C@H](C(C)C)N(C)C(=O)[C@H](C(C)C)N(C)C(=O)[C@H](C)N(C)C(=O)[C@H](C(C)C)N(C)C(=O)[C@H](C(C)C)N(C)C(=O)[C@H](C)N(C)C(=O)[C@H](C)NC(C)=O [Compound P7, shagamide E] (Ac-A[NMeA][NMeV][NMeV][NMeA][NMeV][NMeV][NMeA][NMeI]-NHMe) | >100 | > 10 | > 10 | > 10 | > 100 | blood-stage anti-malarial activity [4]: did not show significant activity
15 | CC[C@H](C)[C@@H](C(=O)N(C)[C@@H](C)C(=O)N(C)[C@H](C(N)=O)C(C)C)N(C)C(=O)[C@H]([C@@H](C)CC)N(C)C(=O)[C@H](C)N(C)C(=O)[C@H](C(C)C)N(C)C(=O)[C@H](C)N(C)C(=O)[C@@H](NC(C)=O)C(C)C [Compound P8, shagamide F] (Ac-V[NMeA][NMeV][NMeA][NMeI][NMeI][NMeA][NMeV]-NH2) | >100 | > 10 | > 10 | > 10 | > 100 | blood-stage anti-malarial activity [4]: did not show significant activity
16 | CN[C@H](CC(C)C)C(=O)N[C@H]1C(=O)N[C@@H](CC(N)=O)C(=O)N[C@H]2C(=O)N[C@H]3C(=O)N[C@H](C(=O)N[C@H](C(=O)O)c4cc(O)cc(O)c4-c4cc3ccc4O)[C@H](O)c3ccc(c(Cl)c3)Oc3cc2cc(c3O[C@@H]2O[C@H](CO)[C@@H](O)[C@H](O)[C@H]2O[C@H]2C[C@](C)(N)[C@H](O)[C@H](C)O2)Oc2ccc(cc2Cl)[C@H]1O [Vancomycin, reference compound] |  |  |  |  |  | toxicity to host cells (HEK293T; HEK293T, same concentrations alcyopterosins were assayed): non-toxic; MIC (C. difficile UK6; Clostridioides difficile, UK6): 0.34 µM (≈ 0.493 µg/mL); toxicity to host cells (HepG2; HepG2, same concentrations alcyopterosins were assayed): non-toxic
17 | CCCCCCCCCCCCCCCCOP(=O)([O-])OCC[N+](C)(C)C [miltefosine, reference compound] |  |  |  |  |  | IC50 (Leishmania donovani; Macrophage): 6.2 µM
